Laboratory results from ChEMBL document CHEMBL1201862, “PubChem BioAssay data set” (2004).
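Cultured in 96-well plates, cells were exposed to test compound for 48 hours across five concentrations. Abbreviation: GI50, concentration required for 50% inhibition of growth.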 Calls of active or inactive are those of the source. No stated cut-off is given here; in the data, active = GI50 up to about 1.1 µM and inactive = higher.

Assays:
Assay in all cases: growth of human tumour cells (NCI), 48 h
[1] = test system: OVCAR-3
[2] = test system: HCT-116
[3] = test system: SNB-75
[4] = test system: ACHN
[5] = test system: 786-0
[6] = test system: SR
[7] = test system: SF-295
[8] = test system: PC-3
[9] = test system: OVCAR-5
[10] = test system: HCC 2998
[11] = test system: CAKI-1
[12] = test system: HCT-15
[13] = test system: SN12C
[14] = test system: T47D
[15] = test system: HL-60
[16] = test system: UACC-62
[17] = test system: NCI-H226
[18] = test system: OVCAR-4
[19] = test system: DMS-114

Structure (SMILES)	GI50 [1]	GI50 [2]	GI50 [3]	GI50 [4]	GI50 [5]	GI50 [6]	GI50 [7]	GI50 [8]	GI50 [9]	GI50 [10]	GI50 [11]	GI50 [12]	GI50 [13]	GI50 [14]	GI50 [15]	GI50 [16]	GI50 [17]	GI50 [18]	GI50 [19]
O=c1[nH]c(=O)n(COCCOCc2ccccc2)cc1Nc1ccccc1	> 100 µM (inactive)	> 100 µM (inactive)	> 100 µM (inactive)	> 100 µM (inactive)	60.1 µM (inactive)	> 100 µM (inactive)	> 100 µM (inactive)	> 100 µM (inactive)	> 100 µM (inactive)	> 100 µM (inactive)	> 100 µM (inactive)	> 100 µM	> 100 µM (inactive)	24.2 µM (inactive)	41.9 µM (inactive)	> 100 µM (inactive)	> 100 µM (inactive)	> 100 µM (inactive)	–
Cc1nc2ccc(NC3OCC(O)C(O)C3O)cc2c(=O)n1-c1ccccc1 (stereo unspecified)	> 100 µM (inactive)	> 100 µM (inactive)	> 100 µM (inactive)	> 100 µM (inactive)	> 100 µM (inactive)	> 100 µM (inactive)	> 100 µM (inactive)	> 100 µM (inactive)	> 100 µM (inactive)	> 100 µM (inactive)	> 100 µM (inactive)	> 100 µM	> 100 µM (inactive)	> 100 µM (inactive)	49.7 µM (inactive)	> 100 µM (inactive)	> 100 µM (inactive)	> 100 µM (inactive)	–
O=C1c2ccccc2C(=O)N1CC(CN1C(=O)c2ccccc2C1=O)(C(=O)OCc1ccccc1)C(=O)OCc1ccccc1	> 100 µM (inactive)	> 100 µM (inactive)	> 100 µM (inactive)	–	–	> 100 µM (inactive)	> 100 µM (inactive)	> 100 µM (inactive)	> 100 µM (inactive)	> 100 µM (inactive)	> 100 µM (inactive)	> 100 µM	> 100 µM (inactive)	> 100 µM (inactive)	> 100 µM (inactive)	> 100 µM (inactive)	> 100 µM (inactive)	–	–
CCNC(=O)c1cc(/C=C/c2ccc([N+](=O)[O-])o2)nc2ccccc12	> 62.4 µM (inactive)	5.4 µM (inactive)	22 µM (inactive)	2.26 µM (inactive)	11.3 µM (inactive)	1.38 µM (inactive)	41.7 µM (inactive)	> 100 µM (inactive)	> 100 µM (inactive)	5.26 µM (inactive)	7.96 µM (inactive)	3.88 µM	15.3 µM (inactive)	> 100 µM (inactive)	2.75 µM (inactive)	32.1 µM (inactive)	5.15 µM (inactive)	> 100 µM (inactive)	–
Cc1nc2c(nc1C)-c1c(c3c(n1Cc1ccccc1)C(=O)CCC3)C(=O)C2=O	2.38 µM (inactive)	4.84 µM (inactive)	3.48 µM (inactive)	2.07 µM (inactive)	3.42 µM (inactive)	2.1 µM (inactive)	13.7 µM (inactive)	5.27 µM (inactive)	3.74 µM (inactive)	2.86 µM (inactive)	2.15 µM (inactive)	3.15 µM	2.42 µM (inactive)	4.06 µM (inactive)	3.09 µM (inactive)	14.5 µM (inactive)	21.4 µM (inactive)	1.81 µM (inactive)	–
COC(=O)c1c(C#C[Si](C)(C)C)c(C#C[Si](C)(C)C)c(C#C[Si](C)(C)C)c(C#C[Si](C)(C)C)c1C(=O)OC	> 100 µM (inactive)	> 100 µM (inactive)	> 100 µM (inactive)	> 100 µM (inactive)	> 100 µM (inactive)	> 100 µM (inactive)	> 100 µM (inactive)	> 100 µM (inactive)	> 100 µM (inactive)	> 100 µM (inactive)	> 100 µM (inactive)	> 100 µM	> 100 µM (inactive)	> 100 µM (inactive)	> 100 µM (inactive)	> 100 µM (inactive)	> 100 µM (inactive)	> 100 µM (inactive)	–
CC(CO)CCNc1ncnc2c1ncn2CCC(=O)OC(C)(C)C (stereo unspecified)	> 100 µM (inactive)	> 100 µM (inactive)	> 100 µM (inactive)	> 100 µM (inactive)	> 100 µM (inactive)	> 100 µM (inactive)	> 100 µM (inactive)	> 100 µM (inactive)	> 100 µM (inactive)	> 100 µM (inactive)	> 100 µM (inactive)	–	> 100 µM (inactive)	> 100 µM (inactive)	> 100 µM (inactive)	> 100 µM (inactive)	> 100 µM (inactive)	> 100 µM (inactive)	–
COc1cc(S(=O)(=O)Nc2ccc(-c3csc(N4C(=O)C(Cl)C4c4cccs4)n3)cc2)ccc1Cl (stereo unspecified)	> 100 µM (inactive)	98.9 µM (inactive)	> 100 µM (inactive)	> 100 µM (inactive)	25.8 µM (inactive)	5.32 µM (inactive)	> 100 µM (inactive)	> 100 µM (inactive)	> 100 µM (inactive)	50.5 µM (inactive)	> 100 µM (inactive)	> 100 µM	82.6 µM (inactive)	54.6 µM (inactive)	39.1 µM (inactive)	22.2 µM (inactive)	46 µM (inactive)	21.6 µM (inactive)	–
COc1ccc2[nH]c3c(C)c4ccnc(NCCCN(C)CCCNc5ccc6nnn7c8ccccc8c(=O)c5c67)c4c(C)c3c2c1	1.17 µM (inactive)	0.0217 µM (active)	1.01 µM (active)	0.0773 µM (active)	0.237 µM (active)	0.335 µM (active)	0.14 µM (active)	0.597 µM (active)	1.24 µM (inactive)	0.209 µM (active)	1.03 µM (active)	0.114 µM	0.242 µM (active)	1.81 µM (inactive)	0.135 µM (active)	> 10 µM (inactive)	> 10 µM (inactive)	1.02 µM (active)	–
CCCCCCCCCCC[N+]1(Cc2ccccc2)CC2CCN(Cc3ccccc3)CC2C1 (stereo unspecified)	0.371 µM (active)	0.284 µM (active)	1.15 µM (inactive)	1.17 µM (inactive)	1.03 µM (active)	0.0546 µM (active)	1.09 µM (active)	0.234 µM (active)	1.55 µM (inactive)	0.649 µM (active)	1.4 µM (inactive)	1.52 µM	0.327 µM (active)	0.166 µM (active)	0.106 µM (active)	–	0.67 µM (active)	0.679 µM (active)	–
O=C1[C@H]2C(c3ccccc3)=NN(C(=O)c3ccccc3)[C@H]2C(=O)N1c1ccccc1	> 100 µM (inactive)	> 100 µM (inactive)	> 100 µM (inactive)	> 100 µM (inactive)	> 100 µM (inactive)	–	> 100 µM (inactive)	–	–	–	–	> 100 µM	> 100 µM (inactive)	–	–	> 100 µM (inactive)	> 100 µM (inactive)	–	> 100 µM (inactive)
O=C1CCCCC1C(O)(C(F)(F)F)C(F)(F)Cl (stereo unspecified)	> 10 µM (inactive)	> 10 µM (inactive)	> 10 µM (inactive)	> 10 µM (inactive)	> 10 µM (inactive)	> 10 µM (inactive)	> 10 µM (inactive)	> 10 µM (inactive)	> 10 µM (inactive)	> 10 µM (inactive)	> 10 µM (inactive)	> 10 µM	> 10 µM (inactive)	> 10 µM (inactive)	> 10 µM (inactive)	> 10 µM (inactive)	> 10 µM (inactive)	> 10 µM (inactive)	–
CC(=O)OC12OC(C)(C3C(=O)N(c4ccccc4)C(=O)C31)N(c1ccccc1)C2=O (stereo unspecified)	> 100 µM (inactive)	> 100 µM (inactive)	> 100 µM (inactive)	> 100 µM (inactive)	> 100 µM (inactive)	> 100 µM (inactive)	> 100 µM (inactive)	69.3 µM (inactive)	> 100 µM (inactive)	51.6 µM (inactive)	> 100 µM (inactive)	> 100 µM	> 100 µM (inactive)	> 100 µM (inactive)	> 100 µM (inactive)	> 100 µM (inactive)	> 100 µM (inactive)	51.4 µM (inactive)	–
COc1c(C(=O)NCCN(CCNC(=O)c2cccc(-c3cccc(C(=O)N(C)C)c3OC)c2OC)CCNC(=O)c2cccc(-c3cccc(C(=O)N(C)C)c3OC)c2OC)cccc1-c1cccc(C(=O)N(C)C)c1OC	16.1 µM (inactive)	20 µM (inactive)	28.7 µM (inactive)	> 100 µM (inactive)	57.3 µM (inactive)	26.6 µM (inactive)	> 100 µM (inactive)	38.4 µM (inactive)	34.2 µM (inactive)	17.2 µM (inactive)	> 100 µM (inactive)	> 100 µM	24.4 µM (inactive)	15.1 µM (inactive)	39.4 µM (inactive)	31.6 µM (inactive)	17.8 µM (inactive)	28.3 µM (inactive)	–
CC1(C)CCCCCC(C)(CCCO)C1=O (stereo unspecified)	> 100 µM (inactive)	> 100 µM (inactive)	> 100 µM (inactive)	> 100 µM (inactive)	> 100 µM (inactive)	> 100 µM (inactive)	> 100 µM (inactive)	> 100 µM (inactive)	> 100 µM (inactive)	> 100 µM (inactive)	> 100 µM (inactive)	> 100 µM	> 100 µM (inactive)	> 100 µM (inactive)	> 100 µM (inactive)	> 100 µM (inactive)	> 100 µM (inactive)	> 100 µM (inactive)	–
COC(=O)NCCc1n[nH]c2c1C(=O)C=C(N1CCOCC1)C2=O	> 100 µM (inactive)	> 100 µM (inactive)	> 100 µM (inactive)	> 100 µM (inactive)	> 100 µM (inactive)	> 100 µM (inactive)	> 100 µM (inactive)	> 100 µM (inactive)	> 100 µM (inactive)	> 100 µM (inactive)	> 100 µM (inactive)	> 100 µM	> 100 µM (inactive)	> 100 µM (inactive)	> 100 µM (inactive)	> 100 µM (inactive)	> 100 µM (inactive)	> 100 µM (inactive)	–
